Assay results published in US7009045B2 (priority 2000, dated 2006).

What was measured:
Assay type in all cases: cell-based
[1] = system: Candida famata wild type and regulatory mutants able to overproduce riboflavin on iron-rich medium; test: Sensitivity after electroporation to 3CdSO4.8H20, Burkholder medium with 0.3 M sucrose (Table 20); set-up: key: +++: strong growth; ++: weak growth; +: very weak growth; —: absence of growth
Experimental: (§1) Next, the toxicity of CdSO4 (0–25 μM) to regulatory mutants 2-5 and 4-48 and the C. famata wild strain was studied in the medium with sucrose (Table 20).
(§2) It was shown that all three strains appeared to be very sensitive to Cd^+2 ions without any differences between regulatory mutants and the wild-type strain.

[2] = system: Candida famata wild type and regulatory mutants able to overproduce riboflavin on iron-rich medium; test: as above; set-up: key: +++: strong growth; ++: weak growth; —: absence of growth
Experimental: as §1, §2

[3] = system: Candida famata regulatory mutants unable to overproduce riboflavin; test: Sensitivity to monofluoroacetate, Burkholder medium with 0.5% glycerol (Table 7); conditions: MFA 0.2–0.4%
From the text: (§3) In further experiments, the influence of the aconitase inhibitor, 2-monofluoroacetate (MFA), on the growth of C.famata regulatory mutants unable to overproduce riboflavin was studied in media with glucose (0.5%) or glycerol (0.5%) as the carbon sources.

[4] = system: Candida famata regulatory mutants unable to overproduce riboflavin; test: Sensitivity to monofluoroacetate, Burkholder medium with 0.5% glucose (Table 8)
From the text: as §3

With `O.O.O.O.O.O.O.O.O=S(=O)([O-])[O-].O=S(=O)([O-])[O-].O=S(=O)([O-])[O-].[Cd+2].[Cd+2].[Cd+2]` [CdSO4×8H2O] the growth ([1]; #2-5, 15 μM) was “+”, the growth ([1]; #2-5, 20 μM) was “+” and the growth ([1]; #4-48, 15 μM) was “+”. The growth ([1]; #4-48, 20 μM) was “+”, the growth ([1]; VKM Y-9, 15 μM) was “+” and the growth ([1]; VKM Y-9, 20 μM) was “+”. The growth ([2]; #2-5, 5 μM) was “++”, the growth ([2]; #2-5, 10 μM) was “++” and the growth ([2]; #2-5, 25 μM) was “—”. The growth ([2]; #4-48, 5 μM) was “++”, the growth ([2]; #4-48, 10 μM) was “++” and the growth ([2]; #4-48, 25 μM) was “—”. For the same compound, the growth ([2]; VKM Y-9, 5 μM) was “+++”, the growth ([2]; VKM Y-9, 10 μM) was “++” and the growth ([2]; VKM Y-9, 25 μM) was “—”.
For `O=C(O)CF` [MFA, 2-monofluoroacetate], the “effect on growth of wild type VKM Y-9 and leu2 auxotroph L20105” value [3] was “not inhibited at all” and the “effect on growth of most regulatory mutants” value [4] was “did not inhibit growth”.
